Entries after “also recorded” stand apart in the source; their conditions may differ. Where a name gives a salt, the structure may show the parent alone. Read-outs that look alike come from different tables or passages of the source. Values belong to the molecule of their own block, whether it stands above or below them.
What was measured:
[1] = In vitro metabolic stability in human liver microsomes (HLM); conditions: for half-life at 5 μM: both, human; for HLM T½: human liver microsomes, 5 μM compound, NADPH, 37° C.
anesthetized rat = assay: Anesthetized rat spirometry screening assay; format: in vivo
Method in brief: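 Rats under urethane (1.5 g/kg i.v., after isoflurane induction) with femoral and tracheal cannulas; compounds given as i.v. bolus at 0.1 and 0.3 mg/kg with formulation-matched vehicle. RR, VT and minute volume from pneumotachometer airflow, in 30 s bins over 6 min post-dose; arterial blood gases taken pre- and 6 min post-dose.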

[2] = Pharmacokinetic and oral bioavailability in the rat; format: in vivo, Sprague-Dawley rats; conditions: Sprague-Dawley, plasma, oral gavage 10-30 mg/kg vs intravenous bolus 2-5 mg/kg
Procedure: Sprague-Dawley rats (200-300 g) were fed a standard laboratory rodent diet and housed in individual cages on a 12-hour light and 12-hour dark cycle with room temperature maintained at 22±3° C. and relative humidity at 50±20%. Rats were fasted overnight before dosing, with food returned after the 6 hour blood samples were obtained. Bedding was removed until after the 6 hour blood samples were obtained. Water was provided ad libitum throughout the study.
Dosing solution of test compound was prepared in desired oral formulation for oral administration via gavage needle at 10-30 mg/kg (10 mL/kg) to three or four rats. […]
Plasma samples (incurred study samples, calibration standards, quality controls) were normally prepared as follows. […] Calibration standards were typically prepared in the range of 2 ng/ml to 10 μg/mL for quantitation. […]
All pharmacokinetic parameters were determined based on a non-compartmental approach using WinNonlin software (Pharsight, Version 5.1). The terminal elimination half-life (t1/2) was calculated as ln2/λz using the slope (λz) from linear regression analysis of the terminal phase of the plasma concentration-time curve on a semi-log scale. […] The systemic plasma clearance (CLp) was calculated as intravenous dose divided by AUCinf. The volume of distribution at steady state (Vss) was determined as the product of CLp and MRT. […]

in vitro = conditions: male, rat, microsomes
[3] = rat, microsomes
[4] = In vitro metabolic stability in rat liver microsomes (RLM)
physchem = conditions: organic solvent or mixture, thermodynamic from solid
[5] = system: rats chronically treated with morphine; assay: Apnea, ventilation and sleep structure in rats chronically treated with morphine (whole-body plethysmography); format: in vivo, Zucker rats; conditions: oral gavage, hydrochloride
Source text: The objective of this study was to quantify the effects of selected compounds of this invention on apnea, ventilation and sleep structure in a rat model. The study consisted of two treatment conditions: (1) chronic morphine and test compound administered orally, and (2) chronic morphine and oral vehicle.
Adult male lean Zucker rats were anesthetized for electroencephalogram (EEG) and electromyogram (EMG) telemeter implantation. At least one week was permitted post-surgery before animals were used further. Morphine sulfate was added to the drinking water of singly housed rats beginning with 0.1 mg/ml morphine and increasing the concentration in increments, so that a final concentration of 0.6 mg/ml was achieved within 2 weeks. All respiratory measurements were made while animals were unrestrained in whole-body plethysmography chambers to permit animals to sleep and move freely. To avoid eliciting withdrawal, morphine water was continuously available during each plethysmography experiment. Minute volume and the number of central sleep apneas (CSA) were measured during all treatment conditions. A period of at least 1 to 1.5 h was permitted for animals to acclimate to the chamber before data collection began. The biopotential telemeters and their receivers were placed directly under the plethysmographic chambers and were used to continuously to capture EEG, EMG, and body temperature signals. Only data collected between the hours of 10 am to 4:30 pm were used in the final analysis to control for the effects of circadian rhythm on breathing.
Test compound in vehicle or an equivalent volume of vehicle was administered via an oral gavage tube at 12 pm. Data collected between 10 am and 12 pm represented baseline (pre-drug) conditions. Data collected between […] represented post-drug conditions. Analyses of the EEG and EMG waveforms for the purpose of staging sleep-wake behavior in rats as awake, NREM sleep, and REM sleep were based on previous sleep studies involving rodents. Central apneas were defined as a respiratory cycle period that was more than or equal to twice the average cycle period during baseline recordings. Percent time in each sleep-wake state, minute volume, and central sleep apnea counts were compared between treatment groups using a two-way ANOVA (factors: drug treatment and time). Breathing data during wakefulness was not analyzed because movement prevents measurement of accurate volumes when using whole-body plethysmography. When differences were detected with ANOVA, Student-Neuman-Keuls post hoc tests were run for all main effects and interactions. Differences were considered significant when p<0.05. Values are expressed as means±SE.

[6] = 2 minute AUC of minute volume increase vs. comparator N-[2,6-di-(n-propylamino)-[1,3]pyrimidin-4-yl]-N,O-dimethyl-hydroxylamine
[7] = peak minute ventilation increase, urethane-anesthetized rat, i.v. bolus, screening doses 0.1 and 0.3 mg/kg
[8] = versus treatment with a vehicle

RLM T½ [3]: 0.567 h
HLM T½ [1]: 1.52 h
SMILES: C#CCNc1nc(N(C)OC)nc2c(NCCC)nc(N(C)OC)nc12.Cl [Compound 15a, N^2,N^6-Bis(N-methoxy(N-methyl)amino)-N^4-n-propylamino-N^8-prop-2-ynylamino-pyrimido[5,4-d]pyrimidine hydrochloride]
AUC MV Inc (2 min) (ratio vs. std*) (anesthetized rat; [6]): 0.00 ratio vs. std
VE Peak (% Inc.) (anesthetized rat; [7]): 6 % Inc.

RLM T½ [3]: 0.15 h
HLM T½ [1]: 0.35 h
SMILES: CCCNc1nc(NC)nc2c(NCCC)ncnc12.Cl [Compound 22a, N^2-Methyl-N^4,N^8-di-n-propylpyrimido[5,4-d]primidine-2,4,8-triamine hydrochloride]
AUC MV Inc (2 min) (ratio vs. std*) (anesthetized rat; [6]): 0.01 ratio vs. std
VE Peak (% Inc.) (anesthetized rat; [7]): 9 % Inc.

The next lines start with the molecule.

SMILES: CCCNc1nc(NC)nc2c(NCCC)nc(NC)nc12.Cl [Compound 4a, N^2,N^6-Dimethyl-N^4,N^8-di-n-propyl-pyrimido[5,4-d]pyrimidine-2,4,6,8-tetraamine hydrochloride]
half-life at 5 μM ([1]; liver microsomes): 6.85 h
melting point: 229 to 232 °C
AUC MV Inc (2 min) (ratio vs. std*) (anesthetized rat; [6]): 1.28 ratio vs. std
duration of increase in minute ventilation (anesthetized rat; anesthetized rat, i.v. bolus): approximately 2 minutes
effect on blood pressure (anesthetized rat; anesthetized rat, i.v. bolus): negligible effects
effect on minute ventilation above baseline values (anesthetized rat; anesthetized rat, i.v. bolus): increase
effect on pulse rate (anesthetized rat; anesthetized rat, i.v. bolus): negligible effects
effect on respiratory rate (anesthetized rat; anesthetized rat, i.v. bolus): stimulatory effects on respiratory rate primarily
dose dependence of effect on minute volume (anesthetized rat; based on a two-minute average): dose-dependent effect
effect compared to a reference compound as measured by area-under-curve (anesthetized rat; minute volume, two-minute average): greater effect
bioavailability [2]: 38%
half-life at 5 μM (in vitro): 4.55 h

SMILES: CCCNc1nc(NCCC(F)(F)F)nc2c(NCCC)nc(NC)nc12 [Compound 39a, hydrochloride]
half-life at 5 μM ([1]; microsomes): 3.97 h
AUC MV Inc (2 min) (ratio vs. std*) (anesthetized rat; [6]): 0.71 ratio vs. std
half-life at 5 μM ([4]; male, rat, microsomes): 2.57 h

SMILES: CCCNc1nc(N2CCOCC2)nc2c(NCCC)nc(NC)nc12 [Compound 41a, N^2-Methyl-N^4N^8-di-n-propyl-6-(morpholin-4-yl)-pyrimido[5,4-d]pyrimidine-2,4,8-triamine]
HLM T½ [1]: 3.12 h
AUC MV Inc (2 min) (ratio vs. std*) (anesthetized rat; rat, in vivo): 0.36 ratio vs. std
VE Peak (% Inc.) (anesthetized rat; rat, in vivo): 57 % Inc.
RLM T½ ([4]; rat liver microsomes, 5 μM compound, NADPH, 37° C.): 1.67 h

SMILES: CNc1nc(NCC2CC2)nc2c(NC)nc(NCC3CC3)nc12.Cl [Compound 85a, N^2,N^6-Bis-cyclopropylmethyl-N^4,N^8-dimethyl-pyrimido[5,4-d]pyrimidine-2,4,6,8-tetraamine hydrochloride]
solubility (physchem; Reflux): > 50 mg/mL
solubility (physchem; r.t.): < 50 mg/mL
half-life at 5 μM ([1]; liver microsomes): 6.48 h
melting point: 264 to 265 °C
apnea frequency [5, 8]: reduced; also recorded: decreased
number of apneas per hr expressed as a percent change from baseline (pre-drug) [5, 8]: reduced; also recorded: decreased
minute volume compared to a vehicle-treated group [5]: did not cause an increase; also recorded: do not cause increases
number of apneas per hr versus vehicle [5]: reduced; also recorded: decreased
ventilation per unit time compared to vehicle [5]: did not cause an increase; also recorded: do not cause an increase
AUC MV Inc (2 min) (ratio vs. std*) (anesthetized rat; [6]): 0.51 ratio vs. std
half-life at 5 μM (in vitro): 6.43 h
